Reference: patent US12227496B2 (BRISTOL-MYERS SQUIBB COMPANY, priority 2019, dated 2025)

Biological target: T1, human FXR (Homo sapiens, UniProt Q96RI1)
T1 construct: expressed in transfected cells; host or cells: HEK293 cells stably carrying a 5xGal4-response-element firefly luciferase reporter, transiently transfected with pcDNA3.1-Gal4-FXR
T1 sequence (Q96RI1 262-486 limits assumed): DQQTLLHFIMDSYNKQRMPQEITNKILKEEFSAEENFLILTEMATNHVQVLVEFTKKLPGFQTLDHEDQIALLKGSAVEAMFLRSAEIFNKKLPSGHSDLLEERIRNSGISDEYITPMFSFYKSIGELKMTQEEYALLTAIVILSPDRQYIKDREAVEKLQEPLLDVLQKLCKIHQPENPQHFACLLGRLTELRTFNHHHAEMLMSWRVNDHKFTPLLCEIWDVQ
Experiment: transient human FXR/Gal4-luciferase reporter assay
Type: cell-based
Details: Gal4-hFXR LBD fusion, luciferase reporter in HEK293 cells; response relative to 8 μM GW-4064
Protocol: A Gal4-hFXR fusion construct reporter system was used as the primary assay to characterize compound activity. A construct including 5 copies of the Gal4 promoter response element upstream of a firefly luciferase reporter cDNA was stably expressed in HEK293 cells. This reporter cell line was maintained in Dulbecco's Modified Eagle's medium (DMEM; Gibco) supplemented with 1% penicillin-streptomycin (P/S) solution, 500 μg/mL Zeocin and 10% charcoal/dextran-treated fetal bovine serum (cs-FBS) at 37° C. in a humidified 5% CO2 atmosphere. […] The day prior to transfection, the reporter cells in culture are detached from the plate with trypsin and plated into a T75 flask at a sufficient density to achieve approximately 90% confluence the next morning. […] The mixture is further diluted with 10 mL of a solution comprised of DMEM, 10% cs-FBS, and 1% P/S immediately prior to transferring to the cells. The maintenance culture media is aspirated from the cells and the final transfection mixture is added before the cells are incubated overnight at 37° C. in a humidified 5% CO2 atmosphere. This protocol can be scaled up, and the transiently transfected cells can be cryopreserved in an assay-ready format. For compound testing, 100 nL of the compounds (serial dilutions in DMSO) are dispensed with an Echo acoustic dispenser (Labcyte) into the wells of a Corning/Costar clear bottom 384-well white plate. The transfected cells are harvested, counted, and diluted such that 10-25,000 cells in 25 μL are plated into each well of the 384-well compound assay plate. The compound-treated cells are incubated overnight at 37° C. in a humidified 5% CO2 atmosphere. The next morning 25 μL of Steady-Glo (Promega) are added to each well of the plate, the mixture is incubated for 15 min. with shaking, and luminescence is measured on an Envision (Perkin Elmer) plate reader.

| Compound | EC50 |
| --- | --- |
| O=C(C1CCC(F)(F)CC1)N(CC12CCC(c3nc(C4CC4)no3)(CC1)CC2)c1cccc(-c2cnc(C3CC3)o2)c1 [Example 26, N-((4-(3-cyclopropyl-1,2,4-oxadiazol-5-yl)bicyclo[2.2.2]octan-1-yl)methyl)-N-(3-(2-cyclopropyloxazol-5-yl)phenyl)-4,4-difluorocyclohexane-1-carboxamide] | 355 nM |
| CCOC(=O)c1nc(-c2cccc(N(CC34CCC(c5nc(C6CC6)no5)(CC3)CC4)C(=O)C3CCCCC3)c2)cs1 [Example 31, Ethyl 4-(3-(N-((4-(3-cyclopropyl-1,2,4-oxadiazol-5-yl)bicyclo[2.2.2]octan-1-yl)methyl)cyclohexanecarboxamido)phenyl)thiazole-2-carboxylate] | 1200 nM |
| CC(C)(O)c1nc(-c2cccc(N(CC34CCC(c5nc(C6CC6)no5)(CC3)CC4)C(=O)C3CCCCC3)c2)cs1 [Example 32, N-((4-(3-cyclopropyl-1,2,4-oxadiazol-5-yl)bicyclo[2.2.2]octan-1-yl)methyl)-N-(3-(2-(2-hydroxypropan-2-yl)thiazol-4-yl)phenyl)cyclohexanecarboxamide] | 320 nM |
| Cc1noc(C23CCC(CN(C(=O)C4CCCCC4)c4cccc(-c5cnc(C6CCOCC6)o5)c4)(CC2)CC3)n1 [Example 33, N-((4-(3-methyl-1,2,4-oxadiazol-5-yl)bicyclo[2.2.2]octan-1-yl)methyl)-N-(3-(2-(tetrahydro-2H-pyran-4-yl)oxazol-5-yl)phenyl)cyclohexanecarboxamide] | 949 nM |
| Cc1cnc(C23CCC(CN(C(=O)C4CCCCC4)c4cccc(-c5nc(C6CC6)no5)c4)(CC2)CC3)o1 [Example 35, N-(3-(3-cyclopropyl-1,2,4-oxadiazol-5-yl)phenyl)-N-((4-(5-methyloxazol-2-yl)bicyclo[2.2.2]octan-1-yl)methyl)cyclohexanecarboxamide] | 515 nM |
| O=C(C1CCOCC1)N(CC12CCC(c3nc(C4CC4)no3)(CC1)CC2)c1cccc(-c2nc(C(F)F)co2)c1 [Example 36, N-((4-(3-cyclopropyl-1,2,4-oxadiazol-5-yl)bicyclo[2.2.2]octan-1-yl)methyl)-N-(3-(4-(difluoromethyl)oxazol-2-yl)phenyl)tetrahydro-2H-pyran-4-carboxamide] | 525 nM |
| CC(C)(C)OC(=O)N1CCC(C(=O)N(CC23CCC(c4nc(C5CC5)no4)(CC2)CC3)c2cccc(-c3nc(C(F)F)co3)c2)CC1 [Example 38, tert-butyl 4-(((4-(3-cyclopropyl-1,2,4-oxadiazol-5-yl)bicyclo[2.2.2]octan-1-yl)methyl)(3-(4-(difluoromethyl)oxazol-2-yl)phenyl)carbamoyl) piperidine-1-carboxylate] | 4390 nM |
| O=C(C1CCOCC1)N(CC12CCC(c3nc(CC4CC4)no3)(CC1)CC2)c1cccc(-c2nc(CC3CC3)no2)c1 [Example 41, N-((4-(3-(cyclopropylmethyl)-1,2,4-oxadiazol-5-yl)bicyclo[2.2.2]octan-1-yl)methyl)-N-(3-(3-(cyclopropylmethyl)-1,2,4-oxadiazol-5-yl)phenyl)tetrahydro-2H-pyran-4-carboxamide] | 229 nM |
| O=C(C1CCC(F)(F)CC1)N(CC12CCC(c3nc(CC4CC4)no3)(CC1)CC2)c1cccc(-c2nc(CC3CC3)no2)c1 [Example 42, N-((4-(3-(cyclopropylmethyl)-1,2,4-oxadiazol-5-yl)bicyclo[2.2.2]octan-1-yl)methyl)-N-(3-(3-(cyclopropylmethyl)-1,2,4-oxadiazol-5-yl)phenyl)-4,4-difluorocyclohexane-1-carboxamide] | 536 nM |
| O=C(C1CCC(F)(F)CC1)N(CC12CCC(c3nc(C4CC4)no3)(CC1)CC2)c1cccc(-c2nc(CC3CC3)no2)c1 [Example 43, N-((4-(3-cyclopropyl-1,2,4-oxadiazol-5-yl)bicyclo[2.2.2]octan-1-yl)methyl)-N-(3-(3-(cyclopropylmethyl)-1,2,4-oxadiazol-5-yl)phenyl)-4,4-difluorocyclohexane-1-carboxamide] | 379 nM |
| O=C(C1CCOCC1)N(CC12CCC(c3nc(CC4CC4)no3)(CC1)CC2)c1cccc(-c2nc(C3CC3)no2)c1 [Example 45, N-(3-(3-cyclopropyl-1,2,4-oxadiazol-5-yl)phenyl)-N-((4-(3-(cyclopropylmethyl)-1,2,4-oxadiazol-5-yl)bicyclo[2.2.2]octan-1-yl)methyl)tetrahydro-2H-pyran-4-carboxamide] | 278 nM |
| O=C(C1CCC(F)(F)CC1)N(CC12CCC(c3nc(CC4CC4)no3)(CC1)CC2)c1cccc(-c2nc(C3CC3)no2)c1 [Example 46, N-(3-(3-cyclopropyl-1,2,4-oxadiazol-5-yl)phenyl)-N-((4-(3-(cyclopropylmethyl)-1,2,4-oxadiazol-5-yl)bicyclo[2.2.2]octan-1-yl)methyl)-4,4-difluorocyclohexane-1-carboxamide] | 633 nM |
| COCc1nc(-c2cccc(N(CC34CCC(c5nc(C6CC6)no5)(CC3)CC4)C(=O)C3CCN(C(=O)OC(C)(C)C)CC3)c2)cs1 [Example 48, tert-butyl 4-(((4-(3-cyclopropyl-1,2,4-oxadiazol-5-yl)bicyclo[2.2.2]octan-1-yl)methyl)(3-(2-(methoxymethyl)thiazol-4-yl)phenyl)carbamoyl)piperidine-1-carboxylate] | 856 nM |

Compounds with a lower EC50, results first:

| EC50 | Compound |
| --- | --- |
| 75 nM | CCOc1cc(-c2cccc(N(CC34CCC(c5nc(C6CC6)no5)(CC3)CC4)C(=O)C3CCCCC3)c2)no1 [Example 27, N-((4-(3-cyclopropyl-1,2,4-oxadiazol-5-yl)bicyclo[2.2.2]octan-1-yl)methyl)-N-(3-(5-ethoxyisoxazol-3-yl)phenyl)cyclohexanecarboxamide] |
| 34 nM | CCCc1ncc(-c2cccc(N(CC34CCC(c5nc(C6CC6)no5)(CC3)CC4)C(=O)C3CCCCC3)c2)o1 [Example 28, N-((4-(3-cyclopropyl-1,2,4-oxadiazol-5-yl)bicyclo[2.2.2]octan-1-yl)methyl)-N-(3-(2-propyloxazol-5-yl)phenyl)cyclohexanecarboxamide] |
| 53 nM | CCCc1ncc(-c2cccc(N(CC34CCC(c5nc(C6CC6)no5)(CC3)CC4)C(=O)C3CCOCC3)c2)o1 [Example 29, N-((4-(3-cyclopropyl-1,2,4-oxadiazol-5-yl)bicyclo[2.2.2]octan-1-yl)methyl)-N-(3-(2-propyloxazol-5-yl)phenyl)tetrahydro-2H-pyran-4-carboxamide] |
| 212 nM | O=C(C1CCCCC1)N(CC12CCC(c3nc(C4CC4)no3)(CC1)CC2)c1cccc(-c2cnc(C3CCOCC3)o2)c1 [Example 34, N-((4-(3-cyclopropyl-1,2,4-oxadiazol-5-yl)bicyclo[2.2.2]octan-1-yl)methyl)-N-(3-(2-(tetrahydro-2H-pyran-4-yl)oxazol-5-yl)phenyl)cyclohexanecarboxamide] |
| 166 nM | O=C(C1CCCCC1)N(CC12CCC(c3nc(C4CC4)no3)(CC1)CC2)c1cccc(-c2nc(C(F)F)co2)c1 [Example 37, N-((4-(3-cyclopropyl-1,2,4-oxadiazol-5-yl)bicyclo[2.2.2]octan-1-yl)methyl)-N-(3-(4-(difluoromethyl)oxazol-2-yl)phenyl)cyclohexanecarboxamide] |
| 130 nM | CCOc1nnc(-c2cccc(N(CC34CCC(c5nc(C6CC6)no5)(CC3)CC4)C(=O)C3CCC(F)(F)CC3)c2)o1 [Example 39, N-((4-(3-cyclopropyl-1,2,4-oxadiazol-5-yl)bicyclo[2.2.2]octan-1-yl)methyl)-N-(3-(5-ethoxy-1,3,4-oxadiazol-2-yl)phenyl)-4,4-difluorocyclohexane-1-carboxamide] |
| 78 nM | O=C(C1CCOCC1)N(CC12CCC(c3nc(C4CC4)no3)(CC1)CC2)c1cccc(-c2cc(C3CC3)on2)c1 [Example 40, N-((4-(3-cyclopropyl-1,2,4-oxadiazol-5-yl)bicyclo[2.2.2]octan-1-yl)methyl)-N-(3-(5-cyclopropylisoxazol-3-yl)phenyl)tetrahydro-2h-pyran-4-carboxamide] |
| 118 nM | O=C(C1CCOCC1)N(CC12CCC(c3nc(C4CC4)no3)(CC1)CC2)c1cccc(-c2nc(CC3CC3)no2)c1 [Example 44, N-((4-(3-cyclopropyl-1,2,4-oxadiazol-5-yl)bicyclo[2.2.2]octan-1-yl)methyl)-N-(3-(3-(cyclopropylmethyl)-1,2,4-oxadiazol-5-yl)phenyl)tetrahydro-2H-pyran-4-carboxamide] |
| 121 nM | COCc1nc(-c2cccc(N(CC34CCC(c5nc(C6CC6)no5)(CC3)CC4)C(=O)C3CCOCC3)c2)cs1 [Example 47, N-((4-(3-cyclopropyl-1,2,4-oxadiazol-5-yl)bicyclo[2.2.2]octan-1-yl)methyl)-N-(3-(2-(methoxymethyl)thiazol-4-yl)phenyl)tetrahydro-2H-pyran-4-carboxamide] |
